Drawing on patent US8895568B2, “Compositions comprising substituted pteridines as agrochemicals” (Dow AgroSciences LLC, priority 2009, dated 2014), this text covers pest or weed control for 28 molecules.

Like-named read-outs stand apart in the source and are kept apart here.

Holding throughout (type): in vivo
One assay relates to Cochliobolus sativus. Briefly: Spot Blotch of Wheat (COCHSA), foliar spray, percent disease control.
Another assay has as its system Colletotricum lagenarium. Put plainly: Cucumber Anthracnose (COLLLA), foliar spray, percent disease control. The procedure: The activity of the compounds as effective fungicides was determined by applying the compounds to plants and observing control of fungal disease. The compounds were formulated at 200 ppm in 10 vol. % acetone plus 90 vol. % Triton X water (deionized water 99.99 wt %+0.01 wt % Triton X100), giving a “formulated test compound.” In a few cases, compounds were formulated at 75 or 8.3 ppm rather than 200 ppm in 10 vol. % acetone plus 90 vol. % Triton X water (deionized water 99.99 wt. %+0.01 wt. % Triton X100), giving a “formulated test compound.” Formulated test compounds were applied to plants using a turn table sprayer fitted with two opposing air atomization nozzles which delivered approximately 1500 L/ha of spray volume. All plants were inoculated with spores of the fungus the day after treatment, then incubated in an environment conducive to disease development. Disease severity was evaluated 4 to 15 days later, depending on the disease and the speed of disease development. The following experiments were performed in the laboratory to determine the fungicidal efficacy of the compounds of the invention. Cucumber Anthracnose (causal agent Colletotricum lagenarium; Bayer code COLLLA): Cucumber plants (variety Bush Champion) were grown from seed in a soil-less peat-based potting mixture (Metromix) until the first true leaf was 20-80% expanded. Each pot contained 1 seedling. These plants were sprayed until wet with the formulated test compound. On the following day, the leaves were inoculated with an aqueous spore suspension of Colletotricum lagenarium and the plants were kept in high humidity for one day to permit spores to germinate and infect the leaf. The plants were then transferred to a growth chamber until disease developed on untreated control plants. […] The effectiveness of the test compounds at controlling disease when sprayed on leaves was determined by assessing the severity of disease on treated plants, then converting the severity to percent control based on the level of disease on untreated, inoculated plants. Data are the level (in percent) at which the given disease was controlled when the given compound was applied to the foliage of the plants at 200 ppm. In a few cases (noted in the table) the compound was applied to the plants at 75 ppm or 8.3 ppm.

Assay [1] deals with Pseudoperonospora cubensis. Briefly: Cucumber Downy Mildew (PSPECU), foliar spray, percent disease control. To be noted: read-out: PSPECU percent control. The procedure: The activity of the compounds as effective fungicides was determined by applying the compounds to plants and observing control of fungal disease. The compounds were formulated at 200 ppm in 10 vol. % acetone plus 90 vol. % Triton X water (deionized water 99.99 wt %+0.01 wt % Triton X100), giving a “formulated test compound.” In a few cases, compounds were formulated at 75 or 8.3 ppm rather than 200 ppm in 10 vol. % acetone plus 90 vol. % Triton X water (deionized water 99.99 wt. %+0.01 wt. % Triton X100), giving a “formulated test compound.” Formulated test compounds were applied to plants using a turn table sprayer fitted with two opposing air atomization nozzles which delivered approximately 1500 L/ha of spray volume. All plants were inoculated with spores of the fungus the day after treatment, then incubated in an environment conducive to disease development. Disease severity was evaluated 4 to 15 days later, depending on the disease and the speed of disease development. The following experiments were performed in the laboratory to determine the fungicidal efficacy of the compounds of the invention. Cucumber Downy Mildew (causal agent Pseudoperonospora cubensis; Bayer code […]): Cucumber plants (variety Bush Champion) were grown from seed in a soil-less peat-based potting mixture (Metromix) until the first true leaf was 20-80% expanded. Each pot contained 1 seedling. These plants were sprayed until wet with the formulated test compound. On the following day, the leaves were inoculated with an aqueous suspension of downy mildew sporangia and the plants were kept in high humidity for one day to permit sporangia to germinate and infect the leaf. The plants were then incubated in a growth chamber until disease developed on untreated control plants. […] The effectiveness of the test compounds at controlling disease when sprayed on leaves was determined by assessing the severity of disease on treated plants, then converting the severity to percent control based on the level of disease on untreated, inoculated plants. Data are the level (in percent) at which the given disease was controlled when the given compound was applied to the foliage of the plants at 200 ppm. In a few cases (noted in the table) the compound was applied to the plants at 75 ppm or 8.3 ppm.

The mark [2] stands for this setting: Bipolaris sorokiniana, foliar; read-out: COCHSA percent control.
Setting [3] is: Bipolaris sorokiniana; foliar spray; read-out: COCHSA percent control.

`N#Cc1c(Cl)cccc1Oc1ccc(CCNc2ncnc3nccnc23)cc1` [Compound 61]: the pest or weed control at 200 µg/mL in the assay on Cochliobolus sativus (setting [2]) lay within 0 to 49%; in the assay with Colletotricum lagenarium (foliar), 0 to 49%; in assay [1] (foliar) it was 80 to 100%.

Regarding `Oc1cccc(OCCNc2ncnc3nccnc23)c1` [Compound 81], the pest or weed control at 200 µg/mL with Cochliobolus sativus (setting [2]) was in the range of 0 to 49%; in the assay with Colletotricum lagenarium (foliar), 0 to 49%; in assay [1] (foliar) it was 80 to 100%.

As to `c1ccc(OCc2nnc(Oc3ccc(CCNc4ncnc5nccnc45)cc3)s2)cc1` [Compound 27], the pest or weed control at 200 µg/mL (in the assay with Cochliobolus sativus (setting [2]); in the assay with Colletotricum lagenarium (foliar); in assay [1] (foliar)) was 0 to 49% throughout.

Consider `CC(=O)Oc1cc(CCNc2ncnc3nccnc23)ccc1Oc1cc(C(C)(F)F)ccn1` [Compound 196], for which the pest or weed control at 200 µg/mL in the assay with Cochliobolus sativus (setting [2]) is 0 to 49%; with Colletotricum lagenarium (foliar) it was 0 to 49%; in assay [1] (foliar), 80 to 100%.

Consider `N#Cc1ccnc(Oc2cccc(OCCNc3ncnc4nccnc34)c2)c1` [Compound 88], for which the pest or weed control at 200 µg/mL with Cochliobolus sativus (setting [2]) was in the range of 0 to 49%; in the assay with Colletotricum lagenarium (foliar) it was 0 to 49%; in assay [1] (foliar), 80 to 100%.

Take `N#Cc1c(Cl)cncc1Oc1ccc(CCNc2ncnc3nccnc23)cc1` [Compound 35]: the pest or weed control at 200 µg/mL is 0 to 49% in the assay on Cochliobolus sativus (setting [2]), 0 to 49% in the assay with Colletotricum lagenarium (foliar) and 80 to 100% in assay [1] (foliar).

With `CC(C)(C)OC(=O)N(CCc1ccc(O[Si](C)(C)C(C)(C)C)cc1)c1ncnc2nccnc12` [Compound 134, {2-[4-(tert-Butyldimethylsilanyloxy)-phenyl]-ethyl}-pteridin-4-yl-carbamic acid tert-butyl ester], the pest or weed control at 200 µg/mL was 0 to 49% with Cochliobolus sativus (Bipolaris sorokiniana, foliar, read-out: COCHSA percent control); 0 to 49% with Colletotricum lagenarium (foliar); 0 to 49% in assay [1] (foliar).

As for `Fc1nc(F)c(F)c(Oc2ccc(CCNc3ncnc4nccnc34)cc2)c1F` [Compound 94], the figures for the pest or weed control at 200 µg/mL (in the assay on Cochliobolus sativus (setting [2]); in the assay with Colletotricum lagenarium (foliar); in assay [1] (foliar)) were 0 to 49%, 50 to 79% and 50 to 79%, respectively.

Consider `c1ccc(COc2ccc(CCNc3ncnc4nccnc34)cc2)cc1` [Compound 1, [2-(4-Benzyloxyphenyl)-ethyl]-pteridin-4-yl-amine], for which the pest or weed control at 200 µg/mL with Cochliobolus sativus (setting [2]) lay within 50 to 79%; in the assay with Colletotricum lagenarium (foliar) it was 80 to 100%; in assay [1] (foliar), 80 to 100%.

As to `CCc1ccc(Oc2ccc(CCN(C(=O)OC(C)(C)C)c3ncnc4nccnc34)cc2)cc1` [Compound 139], the pest or weed control at 200 µg/mL (in the assay with Cochliobolus sativus (setting [2]); in the assay on Colletotricum lagenarium (foliar); in assay [1] (foliar)) was 0 to 49% throughout.

Regarding `FC(F)(F)c1ccc(Oc2ccc(CCNc3ncnc4ncc(Cl)nc34)cc2)nc1` [Compound 124], the pest or weed control at 200 µg/mL lay within 0 to 49% with Cochliobolus sativus (setting [2]), 0 to 49% with Colletotricum lagenarium (foliar) and 80 to 100% in assay [1] (foliar).

As for `FC(F)(F)c1ccc(Oc2cccc(OCCNc3ncnc4nccnc34)c2)nc1` [Compound 87], the pest or weed control at 200 µg/mL fell in the range of 0 to 49% in the assay with Cochliobolus sativus (setting [2]), 0 to 49% with Colletotricum lagenarium (foliar) and 80 to 100% in assay [1] (foliar).

Turning to `COc1ccc(C(C)Nc2nc(C)nc3nccnc23)cc1` (stereo not drawn) [Compound 19, [1-(4-Methoxyphenyl)ethyl]-2-methylpteridin-4-yl-amine], the pest or weed control at 200 µg/mL (in the assay on Cochliobolus sativus (setting [2]); in the assay with Colletotricum lagenarium (foliar); in assay [1] (foliar)) was 0 to 49% throughout.

`c1ccc(-c2nsc(Oc3ccc(CCNc4ncnc5nccnc45)cc3)n2)cc1` [Compound 22]: the pest or weed control at 200 µg/mL fell in the range of 0 to 49% in the assay on Cochliobolus sativus (setting [2]), 50 to 79% with Colletotricum lagenarium (foliar) and 50 to 79% in assay [1] (foliar).

For the molecule `Cc1nc(NCCc2ccc(O)cc2)c2nc(C)c(C)nc2n1` [Compound 209], the pest or weed control at 200 µg/mL (in the assay on Cochliobolus sativus (setting [3]); in the assay with Colletotricum lagenarium (foliar spray); in assay [1] (foliar spray)) was 0 to 49% in each case.

As to `CC(Nc1ncnc2nccnc12)c1ccccc1` (stereo not drawn) [Compound 9], the results for the pest or weed control at 200 µg/mL (with Cochliobolus sativus (setting [2]); in the assay with Colletotricum lagenarium (foliar); in assay [1] (foliar)) were 0 to 49%, 0 to 49% and 80 to 100%, respectively.

For the molecule `CON=C(C)c1ccnc(Oc2ccc(CCNc3ncnc4nccnc34)cc2)c1` [Compound 63], the results for the pest or weed control at 200 µg/mL (with Cochliobolus sativus (setting [2]); with Colletotricum lagenarium (foliar); in assay [1] (foliar)) were 0 to 49%, 0 to 49% and 80 to 100%, respectively.

For the molecule `Fc1nc(C(F)(F)F)c(F)c(Oc2ccc(CCNc3ncnc4nccnc34)cc2)c1F` [Compound 89], the results for the pest or weed control at 200 µg/mL (in the assay on Cochliobolus sativus (setting [2]); in the assay on Colletotricum lagenarium (foliar); in assay [1] (foliar)) were 0 to 49%, 0 to 49% and 80 to 100%, respectively.

As for `COc1cc(C(F)(F)F)cc(Oc2cc(C)c(CCNc3ncnc4nccnc34)cc2C)n1` [Compound 179], the pest or weed control at 200 µg/mL (in the assay with Cochliobolus sativus (setting [2]); in the assay on Colletotricum lagenarium (foliar); in assay [1] (foliar)) was 0 to 49% each time.

For `FC(F)(F)c1cnccc1Oc1cccc(CCNc2ncnc3nccnc23)c1` [Compound 77], the pest or weed control at 200 µg/mL with Cochliobolus sativus (setting [2]) fell in the range of 0 to 49%; with Colletotricum lagenarium (foliar) it was 0 to 49%; in assay [1] (foliar), 80 to 100%.

As for `N#Cc1c(Cl)cncc1Oc1ccc(CCNc2ncnc3ncc(Cl)nc23)cc1` [Compound 119], the pest or weed control at 200 µg/mL (in the assay on Cochliobolus sativus (setting [2]); in the assay on Colletotricum lagenarium (foliar); in assay [1] (foliar)) was 0 to 49% in each case.

For `Ic1ccnc(Oc2cccc(CCNc3ncnc4nccnc34)c2)c1` [Compound 74], the pest or weed control at 200 µg/mL in the assay with Cochliobolus sativus (setting [2]) is 0 to 49%; in the assay with Colletotricum lagenarium (foliar), 0 to 49%; in assay [1] (foliar), 80 to 100%.

Consider `COc1ccc(CCNc2nc(C)nc3nc(C)c(C)nc23)cc1` [Compound 208, [2-(4-Methoxyphenyl)-ethyl]-(2,6,7-trimethylpteridin-4-yl)-amine], for which the pest or weed control at 200 µg/mL in the assay with Cochliobolus sativus (setting [3]) lay within 0 to 49%; in the assay with Colletotricum lagenarium (foliar spray) it was 0 to 49%; in assay [1] (foliar spray) it was 50 to 79%.

Consider `N#Cc1nccnc1Oc1ccc(CCNc2ncnc3nccnc23)cc1` [Compound 18], for which the pest or weed control at 200 µg/mL lay within 0 to 49% in the assay with Cochliobolus sativus (setting [2]), 0 to 49% in the assay on Colletotricum lagenarium (foliar) and 80 to 100% in assay [1] (foliar).

`Fc1cnc(C(F)(F)F)c(F)c1Oc1ccc(CCNc2ncnc3nccnc23)cc1` [Compound 72]: the pest or weed control at 200 µg/mL with Cochliobolus sativus (setting [2]) was in the range of 0 to 49%; with Colletotricum lagenarium (foliar), 50 to 79%; in assay [1] (foliar), 80 to 100%.

As to `CC(F)(F)c1cc[n+]([O-])c(Oc2ccc(CCNc3ncnc4nccnc34)cc2)c1` [Compound 184, (2-{4-[4-(1,1-difluoroethyl)-1-oxy-pyridin-2-yloxy]-phenyl}-ethyl)-pteridin-4-yl-amine], the pest or weed control at 200 µg/mL in the assay on Cochliobolus sativus (setting [2]) fell in the range of 0 to 49%; with Colletotricum lagenarium (foliar) it was 50 to 79%; in assay [1] (foliar) it was 80 to 100%.

For the molecule `COc1cc(CCNc2ncnc3nccnc23)ccc1Oc1cc(C#N)ccn1` [Compound 57], the pest or weed control at 200 µg/mL in the assay with Cochliobolus sativus (setting [2]) fell in the range of 0 to 49%; in the assay on Colletotricum lagenarium (foliar), 0 to 49%; in assay [1] (foliar), 80 to 100%.

Regarding `[O-][n+]1ccnc(Oc2ccc(CCNc3ncnc4nccnc34)cc2)c1` [Compound 29], the pest or weed control at 200 µg/mL in the assay with Cochliobolus sativus (setting [2]) lay within 0 to 49%; in the assay with Colletotricum lagenarium (foliar), 0 to 49%; in assay [1] (foliar), 80 to 100%.
